Source: patent US20130102629A1, “ANALOGUES FOR THE TREATMENT OR PREVENTION OF FLAVIVIRUS INFECTIONS” (VERTEX PHARMACEUTICALS INCORPORATED, priority 2010, published 2013)

Experiments:
[1] = test system: HCV (1b) replicon, Huh-ET cells; experiment: Cell-based luciferase reporter HCV (1b) RNA replication assay; conditions: Hepatitis C virus; for EC50: HCV genotype 1b replicon, read-out: EC50_1b; for IC50: sub-genomic replicon 1b cell line
Source text: Cell-Based Luciferase Reporter HCV (Ib) RNA Replication Assay Cell Culture
Replicon cell lines Huh-5.2 are derived from the Huh-7 hepatocarcinoma cell line are maintained in culture as generally described in Krieger, N; Lohmann, V; Bartenschlager, R. Enhancement of hepatitis C virus RNA replication by cell culture-adaptive mutations. J. Virol. 2001, 75, 4614-4624. The Huh-5.2 cells contain the highly cell culture-adapted replicon I389luc-ubi-neo/NS3-3′/5.1 construct that carries, in addition to the neomycin gene, an integrated copy to the firefly luciferase gene (Krieger, N; Lohmann, V; Bartenschlager, R. Enhancement of hepatitis C virus RNA replication by cell culture-adaptive mutations. J. Virol. 2001, 75, 4614-4624). This cell line allows measurement of HCV RNA replication and translation by measuring luciferase activity. It has been previously shown that the luciferase activity tightly follows the replicon RNA level in these cells (Krieger, N; Lohmann, V; Bartenschlager, R. Enhancement of hepatitis C virus RNA replication by cell culture-adaptive mutations. J. Virol. 2001, 75, 4614-4624). The Huh-ET cell line has the same features as those mentioned for Huh-5.2 cell line, except that ET cells are more robust and contain an adaptative mutation in the HCV NS4B gene instead of NS5A. Both cell lines are maintained in cultures at a sub-confluent level (<85%) as the level of replicon RNA is highest in actively proliferating cells. The culture media used for cell passaging consist of DMEM (Gibco BRL Laboratories, Mississauga, ON, Canada) supplemented with 10% foetal bovine serum with 1% penicilin/streptomycin, 1% glutamine, 1% sodium pyruvate, 1% non-essential amino acids, and 180 μg/ml of G418 final concentration. Cells are incubated at 37° C., in an atmosphere of 5% CO2 and passaged twice a week to maintain sub-confluence.
Approximately 3000 viable Huh-ET cells (100 μl) are plated per well in a white opaque 96-well microtiter plate. The cell culture media used for the assay is the same as described above except that it contains no G418 and no phenol red. After an incubation period of 3-4 hours at 37° C. in a 5% CO2 incubator, compounds (100 μl) are added at various concentrations. Cells are then further incubated for 4 days at 37° C. in a 5% CO2 incubator. Thereafter, the culture media is removed and cells are lysed by the addition of 95 μL of the luciferase buffer (luciferin substrate in buffered detergent). Cell lysates are incubated at room temperature and protected from direct light for at least 10 minutes. Plates are read for luciferase counts using a luminometer (Wallac MicroBeta Trilux, Perkin Elmer™, MA, USA).
Curves are fitted to data points using nonlinear regression analysis, and IC50s are interpolated from the resulting curve using GraphPad Prism software, version 2.0 (GraphPad Software Inc., San Diego, Calif., USA).

[2] = test system: sub-genomic HCV replicon of genotype 1a (cell line W11.8); experiment: Activity determination using the ELISA and the sub-genomic replicon 1a cell line; type: cell-based; conditions: Hepatitis C virus
Source text: Activity Determination Using the ELISA and the Sub-Genomic Replicon 1a Cell Line
The cell line W11.8 containing the sub-genomic HCV replicon of genotype 1a is used to determine the potency of the drugs. The RNA replication in presence of different drug concentrations is indirectly measured in this cell line by the level of NS5A protein content upon drug treatment for four days. It is shown that the level of the NS5A protein correlates well with the level of HCV RNA in the replicon cell line. Cells are split twice a week in order to keep the confluence state below 85% of the culture flask surface area. The culture media used for cell passaging consists of DMEM-10% foetal bovine serum with 100 UI/mL penicillin, 100 μg/mL streptomycin, 2 mM glutamine, 1 mM sodium pyruvate, non-essential amino acids (1×) and 600 μg/mL of G418 final concentrations. Monolayer of the W11.8 cells is trypsinized and cells are counted. […] Then, substrate solution (100 μl, SuperSignal ELISA Pico Chemiluminescent Substrate, Fisher Cat. No. 37069) is added in each well and plates are incubated 60 minutes at room temperature prior to reading the luminescence (relative light units) on the Analyst HT plate reader. The percentage of inhibition at each drug concentration tested (in duplicate) is calculated.

SMILES	EC50 [1]	IC50 [2]	IC50 [1]
COC(=O)N[C@H](C(=O)N1C[C@@H](C)C[C@H]1c1cc2ccc(-c3ccc(-c4ccc(-c5cnc([C@@H]6C[C@H](C)CN6C(=O)[C@@H](NC(=O)OC)C(C)C)[nH]5)cc4)cc3)cc2[nH]1)C(C)C [Compound 2]	≤ 5 nM	–	–
COC(=O)N[C@H](C(=O)N1C[C@@H](C)C[C@H]1c1nc(-c2ccc(-c3ccc(-c4cnc5[nH]c([C@@H]6C[C@H](C)CN6C(=O)[C@@H](NC(=O)OC)C(C)C)nc5c4)cc3)cc2)c[nH]1)C(C)C [Compound 16, Methyl N-[(1S)-1-[(2S,4S)-2-[4-[4-[4-[2-[(2S,4S)-1-[(2S)-2-(methoxycarbonylamino)-3-methyl-butanoyl]-4-methyl-pyrrolidin-2-yl]-3H-imidazo[4,5-b]pyridin-6-yl]phenyl]phenyl]-1H-imidazol-2-yl]-4-methyl-pyrrolidine-1-carbonyl]-2-methyl-propyl]carbamate]	≤ 5 nM	0.01 nM	0.01 nM
COC(=O)N[C@H](C(=O)N1[C@@H](C)CC[C@H]1c1nc(-c2ccc(-c3ccc(-c4cnc5[nH]c([C@@H]6CC[C@H](C)N6C(=O)[C@@H](NC(=O)OC)C(C)C)nc5c4)cc3)cc2)c[nH]1)C(C)C [Compound 4]	≤ 5 nM	0.025 nM	0.07 nM
COC(=O)N[C@H](C(=O)N1C[C@@H](C)C[C@H]1c1cc2cc(-c3ccc(-c4ccc(-c5cnc([C@@H]6C[C@H](C)CN6C(=O)[C@@H](NC(=O)OC)C(C)C)[nH]5)cc4)cc3)ccc2[nH]1)C(C)C [Compound 5]	≤ 5 nM	–	–
COC(=O)N[C@H](C(=O)N1C[C@@H](C)C[C@H]1c1ncc(-c2ccc(-c3ccc(-c4ccc5nc([C@@H]6C[C@H](C)CN6C(=O)[C@@H](NC(=O)OC)C(C)C)oc5c4)cc3)cc2)[nH]1)C(C)C [Compound 1]	≤ 5 nM	–	–
COC(=O)N[C@H](C(=O)N1C[C@@H](C)C[C@H]1c1nc2ccc(-c3cc4sc(-c5c[nH]c([C@@H]6C[C@H](C)CN6C(=O)[C@@H](NC(=O)OC)C(C)C)n5)cc4s3)cn2n1)C(C)C [Compound 15]	≤ 5 nM	–	–
COC(=O)N[C@H](C(=O)N1C(c2nc3cc(-c4ccc(-c5ccc(-c6c[nH]c([C@@H]7CC[C@H](C)N7C(=O)[C@@H](NC(=O)OC)C(C)C)n6)cc5)cc4)cnc3[nH]2)CC[C@@H]1C)C(C)C (stereo partly drawn) [Compound 6]	≤ 5 nM	–	–
COC(=O)N[C@H](C(=O)N1C[C@@H](C)C[C@H]1c1ncc(-c2ccc(-c3ccc(-c4ccc5sc([C@@H]6C[C@H](C)CN6C(=O)[C@@H](NC(=O)OC)C(C)C)nc5c4)cc3)cc2)[nH]1)C(C)C [Compound 3]	≤ 5 nM	–	–
